Some test systems named below: SNB-19 CNS; HL-60(TB) leukemia; HCT-116 colon; MDA-MB-435; SN12C renal; UO-31 renal; MOLT-4 leukemia; NCI-H460 lung; DU-145 prostate; SK-MEL-2 melanoma.
What all share (test): growth of human tumour cells (NCI), 48 h

Structures are written as SMILES. Where “and” joins values, the source holds several entries; their conditions need not be identical. Equal entries are not always repeated.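 Five concentrations, 48 hours, 96-well plates. GI50: concentration for 50% inhibition of growth. TGI denotes the concentration required for complete inhibition of growth.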 Some results are limits rather than exact numbers.

For `CC1OC(OC2CC(O)C3(CO)C4C(O)CC5(C)C(C6=CC(=O)OC6)CCC5(O)C4CCC3(O)C2)C(O)C(O)C1O` (configuration not stated), the GI50 is 0.0296 µM in the assay with SNB-19 CNS; less than 0.0139 µM with HCT-116 colon; 0.0222 µM in the assay with MDA-MB-435; less than 0.0124 µM in the assay with UO-31 renal; less than 0.0123 µM in the assay with MOLT-4 leukemia; less than 0.0111 µM in the assay with NCI-H460 lung. In addition, the GI50 was less than 0.012 µM with DU-145 prostate and 0.0187 µM in the assay with SK-MEL-2 melanoma. The TGI turned out to be 0.177 µM with SNB-19 CNS; 0.235 µM in the assay on HL-60(TB) leukemia; 0.0209 µM with HCT-116 colon; 0.0785 µM with MDA-MB-435; 0.0228 µM with SN12C renal; 0.0198 µM in the assay on UO-31 renal. Besides, the TGI is 1.78 µM in the assay with MOLT-4 leukemia, 0.0174 µM in the assay with NCI-H460 lung, less than 0.0152 µM in the assay with DU-145 prostate and 0.0754 µM in the assay with SK-MEL-2 melanoma.

Consider `O=c1[nH]c(SCc2c(Cl)c(Cl)c(Cl)c(Cl)c2Cl)nc(=S)[nH]1`, for which the TGI with SNB-19 CNS was more than 100 µM; with HL-60(TB) leukemia, 51.4 µM; in the assay with HCT-116 colon it was more than 100 µM; with MDA-MB-435 it was more than 100 µM; in the assay on SN12C renal it was more than 100 µM; in the assay with UO-31 renal, more than 58.9 µM. Besides, the TGI in the assay with MOLT-4 leukemia was 21.3 µM; in the assay on NCI-H460 lung it was more than 100 µM; in the assay on DU-145 prostate it was more than 100 µM; in the assay with SK-MEL-2 melanoma it was more than 100 µM.

On to `CC1(C)CC2C=C(C=O)C3(C=O)CC3(C)C2C1` (configuration not stated), for which the TGI is 25.6 µM in the assay on SNB-19 CNS; more than 100 µM with HL-60(TB) leukemia; 2.21 µM in the assay on HCT-116 colon; 3.46 µM in the assay on MDA-MB-435; 8.23 µM with SN12C renal; 3.29 µM in the assay on UO-31 renal. Besides, the TGI came to 1.15 µM in the assay with MOLT-4 leukemia, 10.6 µM in the assay with NCI-H460 lung, 17.8 µM in the assay on DU-145 prostate and 4.45 µM in the assay on SK-MEL-2 melanoma.

On to `C#CCNC(=O)CC[C@]1(C)[C@H]2CC[C@@H]3[C@@H]([C@@](C)(O)CCC=C(C)C)CC[C@@]3(C)[C@]2(C)CC[C@H]1C(=C)C`, for which the GI50 was 56.1 µM in the assay with SNB-19 CNS; 1.19 µM with HL-60(TB) leukemia; 17.8 µM in the assay with HCT-116 colon; 38.1 µM in the assay with MDA-MB-435; 31.8 µM with SN12C renal; 14.1 µM with UO-31 renal. In addition, the GI50 is 17 µM in the assay with MOLT-4 leukemia, 31.2 µM in the assay on NCI-H460 lung, 34.8 µM with DU-145 prostate and 47.1 µM in the assay with SK-MEL-2 melanoma. In addition, the TGI is more than 100 µM in the assay on SNB-19 CNS; 15.9 µM with HL-60(TB) leukemia; 35.6 µM with HCT-116 colon; more than 100 µM in the assay with MDA-MB-435; more than 100 µM with SN12C renal; 29.1 µM in the assay on UO-31 renal. The TGI in the assay with MOLT-4 leukemia is 47.3 µM; in the assay on NCI-H460 lung, more than 100 µM; with DU-145 prostate, more than 100 µM; with SK-MEL-2 melanoma, more than 100 µM.

`COC(=O)[C@@]1(C)CC[C@]2(C)CC[C@]3(C)C4=CC=C5C(=CC(=O)C(O)=C5C)[C@]4(C)CC[C@@]3(C)[C@@H]2C1`: the GI50 with SNB-19 CNS is 0.276 µM; in the assay with HL-60(TB) leukemia it was 0.163 µM; with HCT-116 colon it was 0.163 µM; in the assay with MDA-MB-435 it was 0.195 µM; with SN12C renal it was 0.201 µM; in the assay on UO-31 renal, 0.127 µM. Further, the GI50 in the assay with MOLT-4 leukemia was 0.164 µM; in the assay on NCI-H460 lung it was 0.274 µM; in the assay on DU-145 prostate, 0.182 µM; with SK-MEL-2 melanoma, 0.24 µM. Also, the TGI in the assay on SNB-19 CNS was found to be 0.936 µM; with HL-60(TB) leukemia, 0.684 µM; with HCT-116 colon, 0.32 µM; in the assay with MDA-MB-435, 0.503 µM; in the assay on SN12C renal, 0.507 µM; in the assay with UO-31 renal it was 0.261 µM. In addition, the TGI in the assay on MOLT-4 leukemia came to 0.525 µM; in the assay with NCI-H460 lung it was 0.796 µM; in the assay on DU-145 prostate it was 0.382 µM; in the assay with SK-MEL-2 melanoma it was 0.555 µM.

In the case of `O=C(NNC(=O)c1ccncc1)c1ccncc1`, the TGI in the assay with SNB-19 CNS, with HL-60(TB) leukemia, in the assay with HCT-116 colon, in the assay on MDA-MB-435, with SN12C renal and in the assay on UO-31 renal was more than 100 µM each time. Besides, the TGI in the assay on MOLT-4 leukemia, in the assay with NCI-H460 lung, with DU-145 prostate and in the assay on SK-MEL-2 melanoma was more than 100 µM throughout.

Consider `C=C1C(=O)O[C@@H]2C[C@@H]1CC[C@@]1(C)O[C@@H]1CC[C@@]1(C)O[C@@H]1CC[C@@]2(C)O`, for which the GI50 in the assay with SNB-19 CNS was 17.6 µM; in the assay on HL-60(TB) leukemia, 10.3 µM; in the assay with HCT-116 colon, 16.4 µM; in the assay with MDA-MB-435 it was 17.4 µM; in the assay with SN12C renal, 16.1 µM; in the assay on UO-31 renal, 15.3 µM. Moreover, the GI50 in the assay on MOLT-4 leukemia is 10.1 µM; with NCI-H460 lung, 60.3 µM; with DU-145 prostate, 30.3 µM; in the assay on SK-MEL-2 melanoma, 23 µM. The TGI in the assay on SNB-19 CNS was 66 µM; with HL-60(TB) leukemia it was 32.8 µM; with HCT-116 colon, 32 µM; in the assay with MDA-MB-435 it was 68.4 µM; with SN12C renal, 40.1 µM; with UO-31 renal, more than 100 µM. The TGI with MOLT-4 leukemia is 32.3 µM; in the assay on NCI-H460 lung it was more than 100 µM; with DU-145 prostate, more than 100 µM; in the assay with SK-MEL-2 melanoma, 75.2 µM.

As for `COc1cc(C2CC(c3cc(C)ccc3C)=NN2c2ccc(S(=O)(=O)NC(=O)NCc3ccccc3)cc2)cc(OC)c1OC` (configuration not stated), the GI50 is 3.75 µM with SNB-19 CNS; 3.62 µM in the assay with HL-60(TB) leukemia; 3.21 µM in the assay with HCT-116 colon; 2.27 µM with MDA-MB-435; 3.15 µM in the assay with SN12C renal; 3.56 µM in the assay with UO-31 renal. The GI50 with MOLT-4 leukemia was 3.24 µM; in the assay on NCI-H460 lung, 2.54 µM; in the assay on DU-145 prostate, 6.05 µM; with SK-MEL-2 melanoma it was 2.81 µM. Moreover, the TGI was 43.8 µM in the assay with SNB-19 CNS; 11.4 µM in the assay on HL-60(TB) leukemia; more than 100 µM in the assay on HCT-116 colon; 5.25 µM with MDA-MB-435; 18.1 µM with SN12C renal; 15.6 µM with UO-31 renal. The TGI was found to be 25.2 µM in the assay on MOLT-4 leukemia, 6.48 µM with NCI-H460 lung, 30.8 µM in the assay on DU-145 prostate and 6.25 µM with SK-MEL-2 melanoma.

Turning to `O=C1/C(=C/c2ccccc2)CCC/C1=C\c1ccccc1`, the GI50 in the assay on SNB-19 CNS was 6 µM and 12.2 µM; with HL-60(TB) leukemia it was 10.4 µM and 26.1 µM; in the assay with MDA-MB-435, 2.71 µM; in the assay with SN12C renal it was 7.33 µM; in the assay on UO-31 renal, 6.04 µM and 12.5 µM; with MOLT-4 leukemia, 15.1 µM and 11.1 µM. Besides, the GI50 with NCI-H460 lung is 6.09 µM and 19.8 µM; in the assay with DU-145 prostate, 16.9 µM; in the assay on SK-MEL-2 melanoma it was 6.19 µM and 22.7 µM. The TGI with SNB-19 CNS is 10.9 µM and 29 µM and 31 µM; in the assay with HL-60(TB) leukemia, 36.5 µM and > 53 µM and 90 µM; in the assay on HCT-116 colon, 5.86 µM and 3.09 µM and 3.33 µM; in the assay with MDA-MB-435, 11 µM and 14.1 µM; in the assay on SN12C renal it was 12.6 µM and 32.8 µM and 34.9 µM; in the assay with UO-31 renal, 11 µM and 32.3 µM and 28 µM. Moreover, the TGI is 36.5 µM and 71.1 µM and 70.2 µM with MOLT-4 leukemia; 12 µM and 34 µM and 46.8 µM in the assay on NCI-H460 lung; 13.5 µM and 34 µM in the assay on DU-145 prostate; 13.9 µM and 35.5 µM and 49.9 µM with SK-MEL-2 melanoma.

For the origin of these results see PubChem BioAssay (NCI).
